Where two headings read alike, the source gives them in different places.
Experiments:
[1] = molecular target: human NK1 receptor (Homo sapiens, UniProt P25103); experiment: NK1 receptor binding, [3H]substance P displacement, CHO cell membranes; details: first value of the cell pKi NK1/NK3; human NK1 receptor, [3H]substance P
[2] = molecular target: T1, Recombinant human NK3 (hNK3) receptor (Homo sapiens, UniProt P29371); experiment: NK3 receptor binding, [3H]SR142801 displacement, membrane preparations
T1 construct: expressed in transfected cells
T1 sequence (P29371 1-465): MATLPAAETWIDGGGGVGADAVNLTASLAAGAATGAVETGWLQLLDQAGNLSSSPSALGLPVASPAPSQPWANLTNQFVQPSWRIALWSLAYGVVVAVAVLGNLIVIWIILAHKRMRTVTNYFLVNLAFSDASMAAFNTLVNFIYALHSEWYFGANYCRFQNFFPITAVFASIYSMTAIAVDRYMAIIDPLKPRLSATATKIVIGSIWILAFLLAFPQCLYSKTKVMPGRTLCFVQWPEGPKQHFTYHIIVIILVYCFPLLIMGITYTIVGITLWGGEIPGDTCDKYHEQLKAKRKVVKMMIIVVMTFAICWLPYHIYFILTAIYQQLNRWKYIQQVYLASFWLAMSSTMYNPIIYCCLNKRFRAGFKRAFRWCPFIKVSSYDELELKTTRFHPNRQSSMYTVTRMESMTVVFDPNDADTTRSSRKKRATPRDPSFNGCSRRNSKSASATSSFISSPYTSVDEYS
Experimental: Non specific binding was determined using 10 μM SB222200. Assay buffer consisted of Tris-HCl (50 mM, pH 7.4), BSA (0.1%), MnCl2 (4 mM) and phosphoramidon (1 μM). Membrane preparations of hNK3 receptors (approximately 2.5 μg/well in a 96 well plate) were used to initiate the incubation for 90 min at room temperature. This assay was terminated by rapid filtration under vacuum through GF/C filters, presoaked for 90 min with PEI (0.3%), with 3×0.5 ml washes of ice-cold Tris buffer (50 mM, pH 7.4) containing 0.1% BSA. The radioactivity retained on the filters was measured by scintillation counting. All assays were performed in duplicate in at least two separate experiments.

[3] = second value of the cell pKi NK1/NK3, hNK3 receptor, [3H]SR142801
[4] = second value of the cell NK1/NK3, read-out: pKi NK3 (converted)

Sequence of human NK1 receptor (P25103 whole entry): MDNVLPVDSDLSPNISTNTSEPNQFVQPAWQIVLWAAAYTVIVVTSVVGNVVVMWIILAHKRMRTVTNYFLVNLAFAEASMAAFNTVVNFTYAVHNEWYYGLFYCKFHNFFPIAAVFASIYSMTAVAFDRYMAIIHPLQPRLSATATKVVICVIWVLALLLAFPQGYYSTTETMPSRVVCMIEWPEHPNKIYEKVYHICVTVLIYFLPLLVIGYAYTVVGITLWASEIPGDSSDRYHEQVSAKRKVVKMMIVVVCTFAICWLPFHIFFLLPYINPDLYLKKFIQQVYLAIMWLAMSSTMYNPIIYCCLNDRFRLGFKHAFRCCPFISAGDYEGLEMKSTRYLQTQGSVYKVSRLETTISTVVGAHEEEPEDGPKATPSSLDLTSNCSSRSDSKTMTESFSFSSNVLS

SMILES | Ki [1] [nM] | Ki [2, 3] [nM] | Ki [2, 4] [nM]
CN(CC(O)CO)c1cc(-c2ccccc2Cl)c(N(C)C(=O)C(C)(C)c2cc(C(F)(F)F)cc(C(F)(F)F)c2)cn1 (racemic) [Example 58, (RS)-2-(3,5-Bis-trifluoromethyl-phenyl)-N-{4-(2-chloro-phenyl)-6-[(2,3-dihydroxy-propyl)-methyl-amino]-pyridin-3-yl}-N-methyl-isobutyramide] | 2.4 | 5.75 | 
CC(O)CNc1cc(-c2ccccc2Cl)c(N(C)C(=O)C(C)(C)c2cc(C(F)(F)F)cc(C(F)(F)F)c2)cn1 (racemic) [Example 74, (RS)-2-(3,5-Bis-trifluoromethyl-phenyl)-N-[4-(2-chloro-phenyl)-6-(2-hydroxy-propylamino)-pyridin-3-yl]-N-methyl-isobutyramide] | 0.871 | 5.75 | 
CN(C(=O)C(C)(C)c1cc(C(F)(F)F)cc(C(F)(F)F)c1)c1cnc(NCC(O)CO)cc1-c1ccccc1Cl (racemic) [Example 78, (RS)-2-(3,5-Bis-trifluoromethyl-phenyl)-N-[4-(2-chloro-phenyl)-6-(2,3-dihydroxy-propylamino)-pyridin-3-yl]-N-methyl-isobutyramide] | 2.82 | 6.17 | 
Cc1cc(F)ccc1-c1cc(N2CCC(O)C2)ncc1N(C)C(=O)C(C)(C)c1cc(C(F)(F)F)cc(C(F)(F)F)c1 (racemic) [Example 110, (RS)-2-(3,5-Bis-trifluoromethyl-phenyl)-N-[4-(4-fluoro-2-methyl-phenyl)-6-(3-hydroxy-pyrrolidin-1-yl)-pyridin-3-yl]-N-methyl-isobutyramide] | 2.63 | 13.8 | 
CN(C(=O)C(C)(C)c1cc(C(F)(F)F)cc(C(F)(F)F)c1)c1cnc(N[C@@H]2CCCC[C@H]2O)cc1-c1ccccc1Cl (racemic) [Example 151, (1RS,2RS)-2-(3,5-Bis-trifluoromethyl-phenyl)-N-[4-(2-chloro-phenyl)-6-(2-hydroxy-cyclohexylamino)-pyridin-3-yl]-N-methyl-isobutyramide] | 1.15 | 27.5 | 
Cc1cc(F)ccc1-c1cc(N2CCC(S(C)(=O)=O)C2)ncc1N(C)C(=O)C(C)(C)c1cc(C(F)(F)F)cc(C(F)(F)F)c1 (racemic) [Example 170, (RS)-2-(3,5-Bis-trifluoromethyl-phenyl)-N-[4-(4-fluoro-2-methyl-phenyl)-6-(3-methanesulfonyl-pyrrolidin-1-yl)-pyridin-3-yl]-N-methyl-isobutyramide] | 1.95 | 9.12 | 
Cc1cc(F)ccc1-c1cc(N2CCS(=O)(=O)CC2CO)ncc1N(C)C(=O)C(C)(C)c1cc(C(F)(F)F)cc(C(F)(F)F)c1 (racemic) [Example 177, (RS)-2-(3,5-Bis-trifluoromethyl-phenyl)-N-[4-(4-fluoro-2-methyl-phenyl)-6-(3-hydroxymethyl-1,1-dioxo-1λ^6-thiomorpholin-4-yl)-pyridin-3-yl]-N-methyl-isobutyramide] | 1.2 | 2.63 | 
Cc1ccccc1-c1cc(N2CCS(=O)(=O)CC2CO)ncc1N(C)C(=O)C(C)(C)c1cc(C(F)(F)F)cc(C(F)(F)F)c1 (racemic) [Example 178, (RS)-2-(3,5-Bis-trifluoromethyl-phenyl)-N-[6-(3-hydroxymethyl-1,1-dioxo-1λ^6-thiomorpholin-4-yl)-4-o-tolyl-pyridin-3-yl]-N-methyl-isobutyramide] | 0.933 | 3.47 | 
COc1cc(OC)cc(C(C)(C)C(=O)N(C)c2cnc(N3C[C@H](O)C[C@H]3CO)cc2-c2ccccc2C)c1 [Example 400, (2S,4R)-2-(3,5-Dimethoxy-phenyl)-N-[6-(4-hydroxy-2-hydroxymethyl-pyrrolidin-1-yl)-4-o-tolyl-pyridin-3-yl]-N-methyl-isobutyramide] |  |  | 6.03
COc1cc(OC)cc(C(C)(C)C(=O)N(C)c2cnc(NCCO)cc2-c2ccc(F)cc2C)c1 [Example 401, 2-(3,5-Dimethoxy-phenyl)-N-[4-(4-fluoro-2-methyl-phenyl)-6-(2-hydroxy-ethylamino)-pyridin-3-yl]-N-methyl-isobutyramide] |  |  | 20
COc1cc(OC)cc(C(C)(C)C(=O)N(C)c2cnc(N3CCC[C@H]3CO)cc2-c2ccc(F)cc2C)c1 [Example 402, (S)-2-(3,5-Dimethoxy-phenyl)-N-[4-(4-fluoro-2-methyl-phenyl)-6-(2-hydroxymethyl-pyrrolidin-1-yl)-pyridin-3-yl]-N-methyl-isobutyramide] |  |  | 4.68
COc1cc(OC)cc(C(C)(C)C(=O)N(C)c2cnc(N3C[C@H](O)C[C@H]3CO)cc2-c2ccc(F)cc2C)c1 [Example 403, (2S,4R)-2-(3,5-Dimethoxy-phenyl)-N-[4-(4-fluoro-2-methyl-phenyl)-6-(4-hydroxy-2-hydroxymethyl-pyrrolidin-1-yl)-pyridin-3-yl]-N-methyl-isobutyramide] |  |  | 5.75

Continued, values first:

Ki [1] [nM] | Ki [2, 3] [nM] | Ki [2, 4] [nM] | SMILES
2.29 | 2 |  | CCN(C(C)=O)C1CCN(c2cc(-c3ccccc3Cl)c(N(C)C(=O)C(C)(C)c3cc(C(F)(F)F)cc(C(F)(F)F)c3)cn2)C1 (racemic) [Example 45, (RS)-N-[6-[3-(Acetyl-ethyl-amino)-pyrrolidin-1-yl]-4-(2-chloro-phenyl)-pyridin-3-yl]-2-(3,5-bis-trifluoromethyl-phenyl)-N-methyl-isobutyramide]
1.41 | 14.5 |  | CN(C(=O)C(C)(C)c1cc(C(F)(F)F)cc(C(F)(F)F)c1)c1cnc(N2CCCC(O)C2)cc1-c1ccccc1Cl (racemic) [Example 50, (RS)-2-(3,5-Bis-trifluoromethyl-phenyl)-N-[4′-(2-chloro-phenyl)-3-hydroxy-3,4,5,6-tetrahydro-2H-[1,2′]bipyridinyl-5′-yl]-N-methyl-isobutyramide]
2.51 | 24.5 |  | CN(C(=O)C(C)(C)c1cc(C(F)(F)F)cc(C(F)(F)F)c1)c1cnc(N2CCCCC2CCO)cc1-c1ccccc1Cl (racemic) [Example 53, (RS)-2-(3,5-Bis-trifluoromethyl-phenyl)-N-[4′-(2-chloro-phenyl)-2-(2-hydroxy-ethyl)-3,4,5,6-tetrahydro-2H-[1,2′]bipyridinyl-5′-yl]-N-methyl-isobutyramide]
1.48 | 1.29 |  | CN(C(=O)C(C)(C)c1cc(C(F)(F)F)cc(C(F)(F)F)c1)c1cnc(N2CCC(S(C)(=O)=O)C2)cc1-c1ccccc1Cl (racemic) [Example 66, (RS)-2-(3,5-Bis-trifluoromethyl-phenyl)-N-[4-(2-chloro-phenyl)-6-(3-methanesulfonyl-pyrrolidin-1-yl)-pyridin-3-yl]-N-methyl-isobutyramide]
6.46 | 18.6 |  | CN(C(=O)C(C)(C)c1cc(C(F)(F)F)cc(C(F)(F)F)c1)c1cnc(N2CCCCC2CO)cc1-c1ccccc1Cl (racemic) [Example 141, (RS)-2-(3,5-Bis-trifluoromethyl-phenyl)-N-[4′-(2-chloro-phenyl)-2-hydroxymethyl-3,4,5,6-tetrahydro-2H-[1,2′]bipyridinyl-5′-yl]-N-methyl-isobutyramide]
3.72 | 24.5 |  | CN(C(=O)C(C)(C)c1cc(C(F)(F)F)cc(C(F)(F)F)c1)c1cnc(N2CCC(CO)C2)cc1-c1ccccc1Cl (racemic) [Example 171, (RS)-2-(3,5-Bis-trifluoromethyl-phenyl)-N-[4-(2-chloro-phenyl)-6-(3-hydroxymethyl-pyrrolidin-1-yl)-pyridin-3-yl]-N-methyl-isobutyramide]
2.09 | 26.3 |  | Cc1ccccc1-c1cc(N2CCOC(CO)C2)ncc1N(C)C(=O)C(C)(C)c1cc(C(F)(F)F)cc(C(F)(F)F)c1 (racemic) [Example 176, (RS)-2-(3,5-Bis-trifluoromethyl-phenyl)-N-[6-(2-hydroxymethyl-morpholin-4-yl)-4-o-tolyl-pyridin-3-yl]-N-methyl-isobutyramide]
1.55 | 32.4 |  | Cc1ccccc1-c1cc(N2CC[C@H](O)[C@H](O)C2)ncc1N(C)C(=O)C(C)(C)c1cc(C(F)(F)F)cc(C(F)(F)F)c1 (racemic) [Example 185, (3RS,4SR)-2-(3,5-Bis-trifluoromethyl-phenyl)-N-(3,4-dihydroxy-4′-o-tolyl-3,4,5,6-tetrahydro-2H-[1,2′]bipyridinyl-5′-yl)-N-methyl-isobutyramide]
1.41 | 12.3 |  | Cc1ccccc1-c1cc(N2CC[C@@H](O)[C@H](O)C2)ncc1N(C)C(=O)C(C)(C)c1cc(C(F)(F)F)cc(C(F)(F)F)c1 (racemic) [Example 186, (3RS,4RS)-2-(3,5-Bis-trifluoromethyl-phenyl)-N-(3,4-dihydroxy-4′-o-tolyl-3,4,5,6-tetrahydro-2H-[1,2′]bipyridinyl-5′-yl)-N-methyl-isobutyramide]
